Results on 10 compounds are retold here after US8198273B2, “Compounds and methods for kinase modulation, and indications therefor” (Plexxikon Inc., priority 2009, dated 2012).

Usually IC50 stands for the concentration at which inhibition is half-maximal.

Data set [1] concerns the target T1, CYP1A2 (Homo sapiens, UniProt P05177).
T1 sequence (P05177 1-516): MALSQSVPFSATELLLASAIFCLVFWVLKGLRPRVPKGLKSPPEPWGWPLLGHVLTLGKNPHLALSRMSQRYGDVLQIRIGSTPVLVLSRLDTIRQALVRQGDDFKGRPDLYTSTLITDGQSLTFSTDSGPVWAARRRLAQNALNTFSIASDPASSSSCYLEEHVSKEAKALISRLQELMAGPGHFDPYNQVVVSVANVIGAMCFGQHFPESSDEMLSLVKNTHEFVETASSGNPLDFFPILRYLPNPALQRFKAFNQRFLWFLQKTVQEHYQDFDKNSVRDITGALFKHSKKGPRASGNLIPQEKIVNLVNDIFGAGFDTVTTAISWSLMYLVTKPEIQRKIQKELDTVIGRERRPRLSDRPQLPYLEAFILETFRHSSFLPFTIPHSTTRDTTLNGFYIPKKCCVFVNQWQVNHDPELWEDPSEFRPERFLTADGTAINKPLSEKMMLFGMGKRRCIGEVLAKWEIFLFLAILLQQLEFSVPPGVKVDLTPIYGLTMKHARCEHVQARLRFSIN
Put plainly: CYP1A2 inhibition (fluorescent substrate). Conditions: CYP1A2, CEC substrate; read-out: Cyp IC50 1A2. Type of data set: in vitro ADME. The gist of the method: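 First, 100 mM DMSO stocks are diluted into acetonitrile, then twofold through co-factor mix for 10 points. Next, mixtures are preincubated 10 min at 37 °C.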

Data set [2] concerns the target B-Raf V600E (Homo sapiens, UniProt P15056, V600E). Description: B-Raf V600E biochemical kinase inhibition (AlphaScreen, biotin-MEK1 substrate). Conditions: 100 μM ATP. Summed up:
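Serial 1:3 dilutions of compound (0.1 mM DMSO stock, eight points) were added first, then ATP to start the reaction at 100 μM final.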
A general note: Bead proximity is the source of the signal in Alpha formats.

The test system of data set [3] is A375 melanoma cells (B-Raf V600E). Put plainly: A375 cell growth inhibition (ATPlite). Format: cell-based. The settings on record: Homo sapiens, A-375, 72 h; A375, 3 days incubation. Summed up:
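ATPlite luminescence, taken as a cell-number measure, gave IC50 values after a 3-day 37° C, 5% CO2 incubation. Compounds were tested as 8-point threefold titrations, highest final concentration 10 μM, added to cells seeded the day before.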
In general terms: Cellular ATP, detected with luciferase, serves as a proxy for viable cell number.

Some results are limits rather than exact numbers.

B-Raf V600E, sequence (P15056 whole entry V600E): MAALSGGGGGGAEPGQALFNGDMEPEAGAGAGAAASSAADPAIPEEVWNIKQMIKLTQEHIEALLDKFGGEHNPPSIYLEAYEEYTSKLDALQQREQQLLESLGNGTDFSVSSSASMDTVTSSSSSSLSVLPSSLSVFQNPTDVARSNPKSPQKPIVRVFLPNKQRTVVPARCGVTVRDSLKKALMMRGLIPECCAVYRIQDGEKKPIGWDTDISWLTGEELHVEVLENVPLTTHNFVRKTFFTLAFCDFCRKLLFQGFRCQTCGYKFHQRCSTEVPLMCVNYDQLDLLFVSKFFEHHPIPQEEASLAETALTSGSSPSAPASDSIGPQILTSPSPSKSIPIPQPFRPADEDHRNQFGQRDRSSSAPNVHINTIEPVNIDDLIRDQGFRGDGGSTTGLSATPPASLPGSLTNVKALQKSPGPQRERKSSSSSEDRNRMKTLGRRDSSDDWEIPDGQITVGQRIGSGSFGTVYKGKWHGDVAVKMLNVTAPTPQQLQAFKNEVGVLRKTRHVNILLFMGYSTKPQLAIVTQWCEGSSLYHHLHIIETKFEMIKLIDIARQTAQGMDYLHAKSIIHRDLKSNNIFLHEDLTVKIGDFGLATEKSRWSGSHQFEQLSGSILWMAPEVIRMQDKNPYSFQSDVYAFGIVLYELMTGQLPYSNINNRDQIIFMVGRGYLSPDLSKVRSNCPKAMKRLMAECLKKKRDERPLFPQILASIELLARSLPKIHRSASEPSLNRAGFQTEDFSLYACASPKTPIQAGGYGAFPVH

For `CCCS(=O)(=O)Nc1ccc(F)c(C(=O)c2c[nH]c3ncc(-c4ccc(S(=O)(=O)N5CCOCC5)cc4)cc23)c1F` [P-2166, Propane-1-sulfonic acid (2,4-difluoro-3-{5-[4-(morpholine-4-sulfonyl)-phenyl]-1H-pyrrolo[2,3-b]pyridine-3-carbonyl}-phenyl)-amide], the 50% inhibitory concentration (IC50) in data set [1] is > 10 µM; in data set [2], < 10 nM; in data set [3], < 1000 nM.

For `CCCS(=O)(=O)Nc1ccc(F)c(C(=O)c2c[nH]c3ncc(-c4ccc(C(=O)NCC)nc4)cc23)c1F` [P-2151, 5-{3-[2,6-Difluoro-3-(propane-1-sulfonylamino)-benzoyl]-1H-pyrrolo[2,3-b]pyridin-5-yl}-pyridine-2-carboxylic acid ethylamide], the IC50 in data set [1] is > 10 µM; in data set [2], < 10 nM; in data set [3], < 1000 nM.

Take `CCCS(=O)(=O)Nc1ccc(F)c(C(=O)c2c[nH]c3ncc(-c4cnc(OC)nc4OC)cc23)c1F` [P-2199, Propane-1-sulfonic acid {3-[5-(2,4-dimethoxy-pyrimidin-5-yl)-1H-pyrrolo[2,3-b]pyridine-3-carbonyl]-2,4-difluoro-phenyl}-amide]: the figures for the IC50 in data set [1], in data set [2] and in data set [3] were > 10 µM, < 10 nM and < 5000 nM, respectively.

Turning to `Cc1cnc2[nH]cc(C(=O)c3c(F)ccc(NS(=O)(=O)c4c(F)cccc4F)c3F)c2c1` [P-2024, N-[2,4-Difluoro-3-(5-methyl-1H-pyrrolo[2,3-b]pyridine-3-carbonyl)-phenyl]-2,6-difluoro-benzenesulfonamide], the IC50 in data set [1] is > 10 µM; in data set [2] it was < 100 nM; in data set [3], < 5000 nM.

On to `CCCS(=O)(=O)Nc1ccc(F)c(C(=O)c2c[nH]c3ncc(-c4ccc(S(C)(=O)=O)cc4)cc23)c1F` [P-2183, Propane-1-sulfonic acid {2,4-difluoro-3-[5-(4-methanesulfonyl-phenyl)-1H-pyrrolo[2,3-b]pyridine-3-carbonyl]-phenyl}-amide], for which the values for the IC50 in data set [1], in data set [2] and in data set [3] were > 10 µM, < 10 nM and < 100 nM, respectively.

For `CCCc1ccc(-c2cnc3[nH]cc(C(=O)c4c(F)ccc(NS(=O)(=O)CCC)c4F)c3c2)cn1` [P-2224, Propane-1-sulfonic acid {2,4-difluoro-3-[5-(6-propyl-pyridin-3-yl)-1H-pyrrolo[2,3-b]pyridine-3-carbonyl]-phenyl}-amide], the half-inhibitory concentration (IC50) in data set [1] is > 10 µM; in data set [2], < 10 nM; in data set [3], < 1000 nM.

As for `Cc1cnc2[nH]cc(C(=O)c3c(F)ccc(NS(=O)(=O)c4ccccc4F)c3F)c2c1` [P-2014, N-[2,4-Difluoro-3-(5-methyl-1H-pyrrolo[2,3-b]pyridine-3-carbonyl)-phenyl]-2-fluoro-benzenesulfonamide], the IC50 was > 10 µM in data set [1], < 10 nM in data set [2] and < 1000 nM in data set [3].

Consider `N#Cc1cnc2[nH]cc(C(=O)c3cccc(NS(=O)(=O)c4c(F)cccc4F)c3F)c2c1` [P-2054, N-[3-(5-Cyano-1H-pyrrolo[2,3-b]pyridine-3-carbonyl)-2-fluoro-phenyl]-2,6-difluoro-benzenesulfonamide], for which the results for the IC50 in data set [1], in data set [2] and in data set [3] were > 10 µM, < 10 nM and < 5000 nM, respectively.

For `CCCS(=O)(=O)Nc1ccc(F)c(C(=O)c2c[nH]c3ncc(C#CCOC)cc23)c1F` [P-2239, Propane-1-sulfonic acid {2,4-difluoro-3-[5-(3-methoxy-prop-1-ynyl)-1H-pyrrolo[2,3-b]pyridine-3-carbonyl]-phenyl}-amide], the IC50 is > 10 µM in data set [1], < 10 nM in data set [2] and < 1000 nM in data set [3].

For the compound `CCCS(=O)(=O)Nc1ccc(F)c(C(=O)c2c[nH]c3ncc(-c4ccc(C(=O)NC5CC5)nc4)cc23)c1F` [P-2181, 5-{3-[2,6-Difluoro-3-(propane-1-sulfonylamino)-benzoyl]-1H-pyrrolo[2,3-b]pyridin-5-yl}-pyridine-2-carboxylic acid cyclopropylamide], the IC50 in data set [1] was > 10 µM; in data set [2], < 10 nM; in data set [3], < 1000 nM.
